In one experiment the test system is HIV-1 (H9IIIB strain). Description: Cell-based HIV infection assay using a reporter (Cell-Based), MT4-GFP cells. Conditions: Human immunodeficiency virus 1, MT4-GFP cells infected with HIV-1 H9IIIB; 50% normal human serum; mean of at least two independent experiments; read-out: Cell-based IP. Summed up:
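MT4-GFP cells (HIV LTR-driven GFP) infected 24 h with HIV-1 H9IIIB at low MOI, then washed and plated with compounds in RPMI + 50% normal human serum, 0.4% DMSO final. Green cells counted at 24 and 48 h; R0 = 48 h/24 h ratio, inhibition normalized to DMSO and triple-drug control; IC50 from 4-parameter fit.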
Consider `COc1ccc([C@H](c2ccc(Cl)cc2)[C@H](N)C(=O)Nc2cccc(F)c2CC[C@H]2CNCCN2S(=O)(=O)c2ccccc2)cn1` [Example 67, (βS)-4-chloro-N-(3-fluoro-2-{2-[(2S)-1-(phenylsulfonyl)piperazin-2-yl]ethyl}phenyl)-β-(6-methoxypridin-3-yl)-L-phenylalaninamide], for which the IC50 was determined as 5.8 nM.

As for `C[C@H]1CNC[C@H](CCc2c(F)cccc2NC(=O)[C@@H](N)[C@@H](c2ccc(Cl)cc2)c2cccc(F)c2)N1S(=O)(=O)c1ccccc1` [Example 101, (βS)-4-chloro-N-(3-fluoro-2-{2-[(2S,6S)-6-methyl-1-(phenylsulfonyl)piperazin-2-yl]ethyl}phenyl)-β-(3-fluorophenyl)-L-phenylalaninamide], the IC50 is 24 nM.

On to `COC(=O)N[C@H](C(=O)Nc1cccc(F)c1CC[C@H]1CNC[C@H](C)N1S(=O)(=O)c1ccc(OC)cc1)[C@@H](Cc1ccc(F)cc1)c1ccc(Cl)cc1` [Example 187, (βS)-4-chloro-β-(4-fluorobenzyl)-N-[3-fluoro-2-(2-{(2S,6S)-1-[(4-methoxyphenyl)sulfonyl]-6-methylpiperazin-2-yl}ethyl)phenyl]-Nα-(methoxycarbonyl)-L-phenylalaninamide], for which the IC50 worked out at 35 nM.

On to `COC(=O)N[C@H](C(=O)N[C@@H]1CCC[C@H]1CC[C@H]1CNCCN1S(=O)(=O)c1ccccc1)C(c1ccc(F)cc1)c1ccc(F)cc1` [Example 351, Methyl ((S)-1,1-bis(4-fluorophenyl)-3-oxo-3-(((1R,2S)-2-(2-((S)-1-(phenylsulfonyl)piperazin-2-yl)ethyl)cyclopentyl)amino)propan-2-yl)carbamate], for which the IC50 was determined as 360 nM.

On to `O=C(CC(c1ccc(F)cc1)c1ccc(F)cc1)Nc1cccc(F)c1CC[C@H]1CNCCN1S(=O)(=O)c1ccccc1` [Example 60, 3,3-bis(4-fluorophenyl)-N-(3-fluoro-2-{2-[(2S)-1-(phenylsulfonyl)piperazin-2-yl]ethyl}phenyl)propanamide], for which the IC50 came out at 27 nM.

Consider `COC(=O)N[C@H](C(=O)Nc1cccc(F)c1CC[C@H]1CNC[C@H](C)N1S(=O)(=O)c1ccccc1)[C@@H](c1ccc(Cl)cc1)c1ccc(OC)nc1` [Example 119, (βS)-4-chloro-N-(3-fluoro-2-{2-[(2S,6S)-6-methyl-1-(phenylsulfonyl)piperazin-2-yl]ethyl}phenyl)-Nα-(methoxycarbonyl)-β-(6-methoxypyridin-3-yl)-L-phenylalaninamide], for which the IC50 came to 9.1 nM.

Turning to `COC(=O)N[C@H](C(=O)Nc1cccc(F)c1CC[C@H]1CNC[C@H](C)N1S(=O)(=O)c1ccccc1)C1(c2cc(F)cc(F)c2)CCOCC1` [Example 286, methyl {(1S)-1-[4-(3,5-difluorophenyl)tetrahydro-2H-pyran-4-yl]-2-[(3-fluoro-2-{2-[(2S,6S)-6-methyl-1-(phenylsulfonyl)piperazin-2-yl]ethyl}phenyl)amino]-2-oxoethyl}carbamate], the IC50 turned out to be 33 nM.

As to `O=C(C[C@@H](c1ccc(F)cc1)c1cc(F)cc(F)c1)Nc1cncc(F)c1CC[C@H]1CNCCN1C(=O)COc1ccccc1` [Example 343, (3S)-3-(3,5-difluorophenyl)-N-(5-fluoro-4-{2-[(2S)-1-(phenoxyacetyl)piperazin-2-yl]ethyl}pyridin-3-yl)-3-(4-fluorophenyl)propanamide], the IC50 came to 125 nM.

For `C[C@@H]1CNC[C@H](CCc2c(F)cccc2NC(=O)[C@@H](N)[C@H](c2cncc(F)c2)c2cccc(Cl)c2)N1S(=O)(=O)c1ccccc1` [Example 261, (βS)-3-chloro-N-(3-fluoro-2-{2-[(2S,6R)-6-methyl-1-(phenylsulfonyl)piperazin-2-yl]ethyl}phenyl)-β-(5-fluoropyridin-3-yl)-L-phenylalaninamide], the IC50 is 70 nM.

For `COC(=O)N[C@H](C(=O)Nc1cncc(F)c1CC[C@H]1CNC[C@H](C)N1S(=O)(=O)c1ccccc1)[C@@H](c1ccc(Cl)cc1)C1CCOCC1` [Example 274, (βR)-4-chloro-N-(5-fluoro-4-{2-[(2S,6S)-6-methyl-1-(phenylsulfonyl)piperazin-2-yl]ethyl}pyridin-3-yl)-Nα-(methoxycarbonyl)-β-(tetrahydro-2H-pyran-4-yl)-L-phenylalaninamide], the IC50 amounted to 22 nM.

Take `C[C@H]1CNC[C@H](CCc2c(F)cccc2NC(=O)[C@@H](N)C2(c3ccc(F)c(F)c3)CCOCC2)N1S(=O)(=O)c1ccccc1` [Example 292, (2S)-2-amino-2-[4-(3,4-difluorophenyl)tetrahydro-2H-pyran-4-yl]-N-(3-fluoro-2-{2-[(2S,6S)-6-methyl-1-(phenylsulfonyl)piperazin-2-yl]ethyl}phenyl)ethanamide]: the IC50 was found to be 130 nM.

As to `COC(=O)N[C@H](C(=O)Nc1cccc(F)c1CC[C@H]1CNC[C@@H](C)N1S(=O)(=O)c1ccccc1)C1(c2ccc(Cl)cc2)CCOCC1` [Example 275, methyl {(1S)-1-[4-(4-chlorophenyl)tetrahydro-2H-pyran-4-yl]-2-[(3-fluoro-2-{2-[(2S,6R)-6-methyl-1-(phenylsulfonyl)piperazin-2-yl]ethyl}phenyl)amino]-2-oxoethyl}carbamate], the IC50 amounted to 19 nM.

With `C[C@@H]1CNC[C@H](CCc2c(F)cccc2NC(=O)[C@@H](N)[C@@H](c2ccc(Cl)cc2)C2CCOCC2)N1S(C)(=O)=O` [Example 160, (βR)-4-chloro-N-(3-fluoro-2-{2-[(2S,6R)-6-methyl-1-(methylsulfonyl)piperazin-2-yl]ethyl}phenyl)-β-(tetrahydro-2H-pyran-4-yl)-L-phenylalaninamide], the IC50 stood at 190 nM.

In the case of `CC[C@@H]1CNC[C@H](CCc2c(F)cccc2NC(=O)[C@@H](NC(=O)OC)[C@@H](c2ccc(Cl)cc2)C2CCOCC2)N1S(=O)(=O)c1ccccc1` [Example 267, methyl ((1R,2S)-1-(4-chlorophenyl)-3-((2-(2-((2S,6R)-6-ethyl-1-(phenylsulfonyl)piperazin-2-yl)ethyl)-3-fluorophenyl)amino)-3-oxo-1-(tetrahydro-2H-pyran-4-yl)propan-2-yl)carbamate], the IC50 is 24 nM.

Take `N[C@H](C(=O)Nc1cncc(F)c1CC[C@H]1CNCCN1S(=O)(=O)c1ccccc1)[C@@H](c1ccc(F)cc1)c1cc(F)cc(F)c1` [Example 30, (βS)-β-(3,5-difluorophenyl)-4-fluoro-N-(5-fluoro-4-{2-[(2S)-1-(phenylsulfonyl)piperazin-2-yl]ethyl}pyridin-3-yl)-L-phenylalaninamide]: the IC50 was determined as 9.3 nM.

As to `COC(=O)N[C@H](C(=O)Nc1cccc(F)c1CC[C@H]1CNC[C@@H](C)N1S(C)(=O)=O)[C@H](c1cccc(F)c1)c1cccc(Cl)c1` [Example 173, (βR)-3-chloro-N-(3-fluoro-2-{2-[(2S,6R)-6-methyl-1-(methylsulfonyl)piperazin-2-yl]ethyl}phenyl)-β-(3-fluorophenyl)-Nα-(methoxycarbonyl)-L-phenylalaninamide], the IC50 was 90 nM.

In the case of `CS(=O)(=O)N1[C@@H](CCc2c(F)cccc2NC(=O)[C@@H](N)C(c2ccc(F)cc2)c2ccc(F)cc2)CNCC12CC2` [Example 367, (S)-2-amino-N-(3-fluoro-2-(2-((S)-4-(methylsulfonyl)-4,7-diazaspiro[2.5]octan-5-yl)ethyl)phenyl)-3,3-bis(4fluorophenyl)propanamide], the IC50 amounted to 47 nM.

In the case of `N[C@H](C(=O)Nc1cncc(F)c1CC[C@H]1CNCCN1S(=O)(=O)c1ccccc1)C(c1cccc(F)c1)c1cccc(F)c1` [Example 4, (S)-2-Amino-N-(5-fluoro-4-(2-((S)-1-(phenylsulfonyl)piperazin-2-yl)ethyl)pyridine-3-yl)-3,3-bis(3-fluorophenyl)propanamide], the IC50 was determined as 4.3 nM.

As to `O=Cc1ccc(S(=O)(=O)N2CCNC[C@@H]2CCc2c(F)cncc2NC(=O)C[C@@H](c2ccc(F)cc2)c2cc(F)cc(F)c2)cc1` [Example 319, (3S)-3-(3,5-difluorophenyl)-N-[5-fluoro-4-(2-{(2S)-1-[(4-formylphenyl)sulfonyl]piperazin-2-yl}ethyl)pyridin-3-yl]-3-(4-fluorophenyl)propanamide], the IC50 was 59 nM.

Take `CC(C)[C@H](c1ccc(Cl)cc1)[C@H](N)C(=O)Nc1cccc(F)c1CC[C@H]1CNC[C@H](C)N1S(=O)(=O)C1CC1` [Example 127, (βR)-4-chloro-N-(2-{2-[(2S,6S)-1-(cyclopropylsulfonyl)-6-methylpiperazin-2-yl]ethyl}-3-fluorophenyl)-β-(1-methylethyl)-L-phenylalaninamide]: the IC50 turned out to be 300 nM.

For `CC(C)[C@H](c1ccc(Cl)cc1)[C@H](N)C(=O)Nc1cccc(F)c1CC[C@H]1CNC[C@H](C)N1S(=O)(=O)c1ccccc1` [Example 109, (βR)-4-chloro-N-(3-fluoro-2-{2-[(2S,6S)-6-methyl-1-(phenylsulfonyl)piperazin-2-yl]ethyl}phenyl)-β-(1-methylethyl)-L-phenylalaninamide], the IC50 stood at 65 nM.

As to `COC(=O)N[C@H](C(=O)Nc1cccc(F)c1CC[C@H]1CNCCN1S(=O)(=O)c1ccccc1)[C@@H](c1ccc(Cl)cc1)c1cccc(F)c1` [Example 52, (βS)-4-chloro-β-(3-fluorophenyl)-N-(3-fluoro-2-{2-[(2S)-1-(phenylsulfonyl)piperazin-2-yl]ethyl}phenyl)-Nα-(methoxycarbonyl)-L-phenylalaninamide], the IC50 came to 9.2 nM.

Staying with this experiment, now noted: MT4-GFP cells infected with HIV-1 H9IIIB; 50% normal human serum; mean of at least two independent experiments; read-out: Cell-based IP.
With `COC(=O)NC(C(=O)NC1CC(F)(F)CC1CC[C@H]1CNCCN1S(=O)(=O)c1ccccc1)C(c1ccc(F)cc1)c1ccc(F)cc1` (stereo in doubt) [Example 359, Methyl ((2R)-1-((4,4-difluoro-2-(2-((S)-1-(phenylsulfonyl)piperazin-2-yl)ethyl)cyclopentyl)amino)-3,3-bis(4-fluorophenyl)-1-oxopropan-2-yl)carbamate], the IC50 is 530 nM.

These data come from patent publication US9840478B2 (MERCK SHARP & DOHME CORP., priority 2013, dated 2017).
